# How the values were obtained:
# [1] = Solubility determination; conditions: for Sol6: pH 6; for Sol7: pH 7
# Outline: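 Sample: TFA-salt peptide at 10 mg/ml target in 0.1 M Na diphosphate, pH 6.4 or 7.0, shaken 2 h RT, filtered, diluted to 1 mg/ml.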
# [2] = target: T1, Human Neuropeptide Y2 Receptor (Homo sapiens, UniProt P49146); assay: Radioligand binding competition assay (RLB); conditions: Table 3, 125I-PYY(1-36) competition; read-out: Ki
# T1 construct: purchased CHEMICON HTS066M
# T1 sequence (P49146 1-381): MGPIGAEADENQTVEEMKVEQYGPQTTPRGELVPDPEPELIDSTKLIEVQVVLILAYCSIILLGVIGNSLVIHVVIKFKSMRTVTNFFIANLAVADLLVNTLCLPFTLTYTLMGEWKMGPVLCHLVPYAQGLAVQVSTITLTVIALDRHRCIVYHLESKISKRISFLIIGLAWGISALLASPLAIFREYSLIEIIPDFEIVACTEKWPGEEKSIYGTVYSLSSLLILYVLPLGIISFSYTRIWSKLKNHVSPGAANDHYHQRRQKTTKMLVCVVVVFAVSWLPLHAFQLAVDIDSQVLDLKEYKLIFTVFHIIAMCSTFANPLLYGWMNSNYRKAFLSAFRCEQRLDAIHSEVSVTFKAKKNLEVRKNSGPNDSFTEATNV
# Outline: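 Filtration competition binding on membranes from cells expressing the receptor, 0.5 μg protein/well, in 50 mM HEPES, 5 mM MgCl2, 1 mM CaCl2, pH 7.4, with 0.2% ovalbumin. Incubation ran 2 h at room temperature, followed by GF/C filtration and scintillation counting. IC50 came from nonlinear sigmoidal fits.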
Sol6 [1],Sol7 [1],Ki [2],SMILES
>10.0 mg/mL,10.0 mg/mL,34.7 nM,"CC(C)CC(=O)N[C@@H](C)C(=O)N1CCC[C@H]1C(=O)N[C@@H](CCC(=O)O)C(=O)N[C@@H](CCCCNC(=O)CCCCCNC(=O)CC[C@H](NC(=O)CCCCCCCCCCCCCCCCC(=O)O)C(=O)O)C(=O)N1CCC[C@H]1C(=O)N[C@@H](CCC(=O)O)C(=O)N[C@@H](CCC(=O)O)C(=O)N[C@@H](CC(=O)O)C(=O)N[C@@H](C)C(=O)N[C@H](C(=O)N1CCC[C@H]1C(=O)N[C@@H](CCC(=O)O)C(=O)N[C@@H](CCC(=O)O)C(=O)N[C@@H](CC(C)C)C(=O)N[C@@H](CCC(N)=O)C(=O)N1CCC[C@H]1C(=O)N[C@@H](Cc1ccc(O)cc1)C(=O)N[C@@H](Cc1ccc(O)cc1)C(=O)N[C@H](C(=O)N[C@@H](CO)C(=O)N[C@@H](CC(C)C)C(=O)N[C@@H](CCCNC(=N)N)C(=O)N[C@@H](Cc1c[nH]cn1)C(=O)N[C@@H](Cc1ccc(O)cc1)C(=O)N[C@@H](Cc1ccc(O)cc1)C(=O)N[C@@H](CC(N)=O)C(=O)N[C@@H](Cc1c[nH]c2ccccc12)C(=O)N[C@@H](CC(C)C)C(=O)N[C@H](C(=O)N[C@@H](CCCNC(=N)N)C(=O)N[C@@H](CCC(N)=O)C(=O)N[C@@H](CCCNC(=N)N)C(=O)N[C@@H](Cc1ccc(O)cc1)C(N)=O)[C@@H](C)O)C(C)C)[C@@H](C)O [Compound 31, N{alpha-4}-(3-methylbutanoyl)-N{epsilon-7}-(6-[(4S)-4-carboxy-4-(17-carboxyheptadecanamido)butanamido]hexanoyl)[4A,7K,9E,13T,18Q,19P,22V,28Y,30W,31L]-hPYY(4-36)]"
10.0 mg/mL,10.0 mg/mL,8.97 nM,"CC(C)CC(=O)N[C@@H](C)C(=O)N1CCC[C@H]1C(=O)N[C@@H](CCC(=O)O)C(=O)N[C@@H](CCCCNC(=O)CCCCCNC(=O)CC[C@H](NC(=O)CCCCCCCCCCCCCCCCC(=O)O)C(=O)O)C(=O)N1CCC[C@H]1C(=O)N[C@@H](CCC(=O)O)C(=O)N[C@@H](CCC(=O)O)C(=O)N[C@@H](CC(=O)O)C(=O)N[C@@H](C)C(=O)N[C@H](C(=O)N1CCC[C@H]1C(=O)N[C@@H](CCC(=O)O)C(=O)N[C@@H](CCC(=O)O)C(=O)N[C@@H](C)C(=O)N[C@@H](CCC(N)=O)C(=O)N[C@@H](CCCNC(=N)N)C(=O)N[C@@H](Cc1ccc(O)cc1)C(=O)N[C@@H](Cc1ccc(O)cc1)C(=O)N[C@H](C(=O)N[C@@H](CO)C(=O)N[C@@H](CC(C)C)C(=O)N[C@@H](CCCNC(=N)N)C(=O)N[C@@H](Cc1c[nH]cn1)C(=O)N[C@@H](Cc1ccc(O)cc1)C(=O)N[C@@H](Cc1ccc(O)cc1)C(=O)N[C@@H](CC(N)=O)C(=O)N[C@@H](Cc1c[nH]c2ccccc12)C(=O)N[C@@H](CC(C)C)C(=O)N[C@H](C(=O)N[C@@H](CCCNC(=N)N)C(=O)N[C@@H](CCC(N)=O)C(=O)N[C@@H](CCCNC(=N)N)C(=O)N[C@@H](Cc1ccc(O)cc1)C(N)=O)[C@@H](C)O)C(C)C)[C@@H](C)O [Compound 54, N{alpha-4}-(3-methylbutanoyl)-N{epsilon-7}-(6-[(4S)-4-carboxy-4-(17-carboxyheptadecanamido)butanamido]hexanoyl)-[4A,7K,9E,13T,17A,18Q,22V,28Y,30W,31L]-hPYY(4-36)]"

# — US12391737B2, “Soluble NPY2 receptor agonists” (Boehringer Ingelheim International GmbH, priority 2020, dated 2025)
